The supplement of paper PMC10883282

Assays:
Experiment in all cases: relative viability vs DMSO control (72 h) (fraction); higher = more viable cells
VA-ES-BJ = tested on: VA-ES-BJ
How it was run: (§1)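 Sarcoma cell lines were grown in 384-well plates seeded toward 80–90% confluence and exposed 24 h later to serially diluted compound. After 72 h at 37 °C and 5% CO2, with 0.1% DMSO vehicle and a 5 µM positive control on the plates, ATPLite was read. Relative viability, given as percent growth averaged over up to triplicate wells, was rescaled so that 1 is full and 0 is none.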

SK-LMS-1 = tested on: SK-LMS-1
How it was run: as §1

SW982 = tested on: SW982
How it was run: as §1

MES-SA = tested on: MES-SA
How it was run: as §1

SW1353 = tested on: SW1353
How it was run: as §1

SK-ES-1 = tested on: SK-ES-1
How it was run: as §1

RD-ES = tested on: RD-ES
How it was run: as §1

G401 = tested on: G401
How it was run: as §1

HT1080 = tested on: HT1080
How it was run: as §1

KHOS-240S = tested on: KHOS-240S
How it was run: as §1

SYO-1 = tested on: SYO-1
How it was run: as §1

RD = tested on: RD
How it was run: as §1

CCc1nc(C(N)=O)c(Nc2ccc(N3CCC(N4CCN(C)CC4)CC3)c(OC)c2)nc1NC1CCOCC1 [Gilteritinib]
Details | relative viability
G401, 60 pM | 1.03
G401, 0.00018 µM | 0.985
G401, 0.00053 µM | 0.968
G401, 0.0016 µM | 0.998
G401, 0.0048 µM | 0.981
G401, 0.014 µM | 0.979
G401, 0.043 µM | 0.971
G401, 0.13 µM | 0.851
G401, 0.389 µM | 0.661
G401, 1.167 µM | 0.478
G401, 3.5 µM | 0.457
HT1080, 60 pM | 1.08
HT1080, 0.00018 µM | 1.032
HT1080, 0.00053 µM | 0.999
HT1080, 0.0016 µM | 1.04
HT1080, 0.0048 µM | 1.07
HT1080, 0.014 µM | 1.05
HT1080, 0.043 µM | 1.05
HT1080, 0.13 µM | 1.05
HT1080, 0.389 µM | 1
HT1080, 1.167 µM | 0.6791
HT1080, 3.5 µM | 0.595
KHOS-240S, 60 pM | 1.08
KHOS-240S, 0.00018 µM | 1.06
KHOS-240S, 0.00053 µM | 1.08
KHOS-240S, 0.0016 µM | 1.04
KHOS-240S, 0.0048 µM | 1.08
KHOS-240S, 0.014 µM | 1.02
KHOS-240S, 0.043 µM | 0.985
KHOS-240S, 0.13 µM | 0.913
KHOS-240S, 0.389 µM | 0.848
KHOS-240S, 1.167 µM | 0.509
KHOS-240S, 3.5 µM | 0.398
MES-SA, 60 pM | 0.954
MES-SA, 0.00018 µM | 0.936
MES-SA, 0.00053 µM | 0.921
MES-SA, 0.0016 µM | 0.922
MES-SA, 0.0048 µM | 0.904
MES-SA, 0.014 µM | 0.947
MES-SA, 0.043 µM | 0.904
MES-SA, 0.13 µM | 0.89
MES-SA, 0.389 µM | 0.76
MES-SA, 1.167 µM | 0.51
MES-SA, 3.5 µM | 0.393
RD, 60 pM | 1.06
RD, 0.00018 µM | 1.06
RD, 0.00053 µM | 1.07
RD, 0.0016 µM | 1.08
RD, 0.0048 µM | 1.08
RD, 0.014 µM | 1.07
RD, 0.043 µM | 1.01
RD, 0.13 µM | 0.829
RD, 0.389 µM | 0.516
RD, 1.167 µM | 0.363
RD, 3.5 µM | 0.32
RD-ES, 60 pM | 0.986
RD-ES, 0.00018 µM | 0.961
RD-ES, 0.00053 µM | 0.9574
RD-ES, 0.0016 µM | 0.968
RD-ES, 0.0048 µM | 0.963
RD-ES, 0.014 µM | 0.938
RD-ES, 0.043 µM | 0.88
RD-ES, 0.13 µM | 0.687
RD-ES, 0.389 µM | 0.316
RD-ES, 1.167 µM | 0.11
RD-ES, 3.5 µM | 0.14
SK-ES-1, 60 pM | 0.996
SK-ES-1, 0.00018 µM | 1.03
SK-ES-1, 0.00053 µM | 1.07
SK-ES-1, 0.0016 µM | 1.01
SK-ES-1, 0.0048 µM | 0.979
SK-ES-1, 0.014 µM | 0.964
SK-ES-1, 0.043 µM | 0.932
SK-ES-1, 0.13 µM | 0.697
SK-ES-1, 0.389 µM | 0.208
SK-ES-1, 1.167 µM | 0.112
SK-ES-1, 3.5 µM | 0.119
SK-LMS-1, 60 pM | 1.03
SK-LMS-1, 0.00018 µM | 1.01
SK-LMS-1, 0.00053 µM | 1.01
SK-LMS-1, 0.0016 µM | 1.03
SK-LMS-1, 0.0048 µM | 0.985
SK-LMS-1, 0.014 µM | 1.018
SK-LMS-1, 0.043 µM | 0.977
SK-LMS-1, 0.13 µM | 0.929
SK-LMS-1, 0.389 µM | 0.765
SK-LMS-1, 1.167 µM | 0.504
SK-LMS-1, 3.5 µM | 0.398
SW982, 60 pM | 0.9618
SW982, 0.00018 µM | 0.996
SW982, 0.00053 µM | 0.978
SW982, 0.0016 µM | 0.967
SW982, 0.0048 µM | 0.988
SW982, 0.014 µM | 0.947
SW982, 0.043 µM | 0.945
SW982, 0.13 µM | 0.612
SW982, 0.389 µM | 0.277
SW982, 1.167 µM | 0.195
SW982, 3.5 µM | 0.2
SW1353, 60 pM | 1.04
SW1353, 0.00018 µM | 1.04
SW1353, 0.00053 µM | 1
SW1353, 0.0016 µM | 1
SW1353, 0.0048 µM | 0.932
SW1353, 0.014 µM | 0.955
SW1353, 0.043 µM | 0.972
SW1353, 0.13 µM | 0.896
SW1353, 0.389 µM | 0.779
SW1353, 1.167 µM | 0.65
SW1353, 3.5 µM | 0.617
SYO-1, 60 pM | 0.959
SYO-1, 0.00018 µM | 0.921
SYO-1, 0.00053 µM | 0.915
SYO-1, 0.0016 µM | 0.848
SYO-1, 0.0048 µM | 0.815
SYO-1, 0.014 µM | 0.791
SYO-1, 0.043 µM | 0.734
SYO-1, 0.13 µM | 0.637
SYO-1, 0.389 µM | 0.481
SYO-1, 1.167 µM | 0.389
SYO-1, 3.5 µM | 0.369
VA-ES-BJ, 60 pM | 0.988
VA-ES-BJ, 0.00018 µM | 0.986
VA-ES-BJ, 0.00053 µM | 0.993
VA-ES-BJ, 0.0016 µM | 1.02
VA-ES-BJ, 0.0048 µM | 1
VA-ES-BJ, 0.014 µM | 0.997
VA-ES-BJ, 0.043 µM | 1.04
VA-ES-BJ, 0.13 µM | 0.937
VA-ES-BJ, 0.389 µM | 0.713
VA-ES-BJ, 1.167 µM | 0.433
VA-ES-BJ, 3.5 µM | 0.3
